Measurements: patent US9371363B2, “Peptides and their use” (Novabiotics Limited, priority 2007, dated 2016)
Where no end group is shown, it is not given here.

test system: S. aureus; type: cell-based; conditions: not given
Method: (§1) Broth Dilution Antibacterial Susceptibility Testing
(§2) The sensitivity of relevant bacterial strains to the peptides (was determined using Clinical Laboratory Standard Institute (CLSI; formerly NCCLS) Approved Standards. Bacterial susceptibility was tested using “Methods for Dilution Antimicrobial Susceptibility Tests for Bacteria That Grow […]; Approved Standard—Seventh Edition M7-A7”

Compound	Minimum Inhibitory Concentration, antimicrobial activity, S. aureus
N=C(N)NCCC[C@H](NC(=O)[C@H](CCCNC(=N)N)NC(=O)[C@H](CCCNC(=N)N)NC(=O)[C@H](CCCNC(=N)N)NC(=O)[C@H](CCCNC(=N)N)NC(=O)[C@H](CCCNC(=N)N)NC(=O)[C@H](CCCNC(=N)N)NC(=O)[C@H](CCCNC(=N)N)NC(=O)[C@H](CCCNC(=N)N)NC(=O)[C@H](CCCNC(=N)N)NC(=O)[C@@H](N)CCCNC(=N)N)C(=O)O [NP317, RRRRRRRRRRR (SEQ ID NO: 13)]	0.25 mM
N=C(N)NCCC[C@H](NC(=O)[C@H](CCCNC(=N)N)NC(=O)[C@H](CCCNC(=N)N)NC(=O)[C@H](CCCNC(=N)N)NC(=O)[C@H](CCCNC(=N)N)NC(=O)[C@H](CCCNC(=N)N)NC(=O)[C@H](CCCNC(=N)N)NC(=O)[C@H](CCCNC(=N)N)NC(=O)[C@H](CCCNC(=N)N)NC(=O)[C@H](CCCNC(=N)N)NC(=O)[C@H](CCCNC(=N)N)NC(=O)[C@H](CCCNC(=N)N)NC(=O)[C@@H](N)CCCNC(=N)N)C(=O)O [NP318, RRRRRRRRRRRRR (SEQ ID NO: 14)]	0.125 mM
N=C(N)NCCC[C@@H](N)C(=O)N[C@H](CCCNC(=N)N)C(=O)N[C@H](CCCNC(=N)N)C(=O)N[C@H](CCCNC(=N)N)C(=O)N[C@H](CCCNC(=N)N)C(=O)N[C@H](CCCNC(=N)N)C(=O)N[C@H](CCCNC(=N)N)C(=O)N[C@H](CCCNC(=N)N)C(=O)N[C@H](CCCNC(=N)N)C(=O)N[C@H](CCCNC(=N)N)C(=O)N[C@H](CCCNC(=N)N)C(=O)N[C@H](CCCNC(=N)N)C(=O)N[C@H](CCCNC(=N)N)C(N)=O [NP341, dRdRdRdRdRdRdRdRdRdRdRdRdR—CONH (SEQ ID NO: 31)]	0.125 mM
GKKEKPEKKVKK [NP331, GKKEKPEKKVKK (SEQ ID NO: 25)]	>2 mM
KKKDKVKK [NP334, KKKDKVKK (SEQ ID NO: 28)]	>2 mM
KKKKKEGKKQEKMLD [NP333]	>2 mM
KLTKPKPQAESKKKKK [NP332]	>2 mM
KVRQGTLKKAR [NP335, KVRQGTLKKAR (SEQ ID NO: 29)]	>2 mM
PKTKAKAKAKKGKGKD [NP336]	>2 mM
RRRRVVRRRR [NP310, RRRRVVRRRR (SEQ ID NO: 10)]	>2 mM
RRRVRRR [NP306, RRRVRRR (SEQ ID NO: 6)]	>2 mM
RRRVVRRR [NP308, RRRVVRRR (SEQ ID NO: 8)]	>2 mM
RRRWRRR [NP325, RRRWRRR (SEQ ID NO: 21)]	>2 mM
RRVRR [NP303, RRVRR (SEQ ID NO: 3)]	>2 mM
RRVRVR [NP304, RRVRVR (SEQ ID NO: 4)]	>2 mM
RRVRVRR [NP307, RRVRVRR (SEQ ID NO: 7)]	>2 mM
RRVVR [NP302, RRVVR (SEQ ID NO: 2)]	>2 mM
RRVVRR [NP305, RRVVRR (SEQ ID NO: 5)]	>2 mM
RRVVRRVVRR [NP311, RRVVRRVVRR (SEQ ID NO: 11)]	>2 mM
RRWRR [NP322, RRWRR (SEQ ID NO: 18)]	>2 mM
RRWRRWRR [NP328, RRWRRWRR (SEQ ID NO: 24)]	>2 mM
RRWRWR [NP323, RRWRWR (SEQ ID NO: 19)]	>2 mM
RRWRWRR [NP326, RRWRWRR (SEQ ID NO: 22)]	>2 mM
RRWWR [NP321, RRWWR (SEQ ID NO: 17)]	>2 mM
RRWWRR [NP324, RRWWRR (SEQ ID NO: 20)]	1 mM
RVRVR [NP301, RVRVR (SEQ ID NO: 1)]	>2 mM
RWRWR [NP320, RWRWR (SEQ ID NO: 16)]	>2 mM

same assay, conditions: S. aureus; CLSI broth dilution

Compound	Minimum Inhibitory Concentration, antimicrobial activity, S. aureus
KKKKKKKKKKKKKKK [NP348]	0.25 mM

same assay, conditions: S. aureus; values marked * in mg/ml

Compound	Minimum Inhibitory Concentration, antimicrobial activity, S. aureus
(H)n, n = 32-161 [NP131]	>2* mg/ml

test system: P. acnes; type: cell-based; conditions: not given
Method: as §1, §2

Compound	Minimum Inhibitory Concentration, antimicrobial activity, P. acnes
N=C(N)NCCC[C@H](NC(=O)[C@H](CCCNC(=N)N)NC(=O)[C@H](CCCNC(=N)N)NC(=O)[C@H](CCCNC(=N)N)NC(=O)[C@H](CCCNC(=N)N)NC(=O)[C@H](CCCNC(=N)N)NC(=O)[C@H](CCCNC(=N)N)NC(=O)[C@H](CCCNC(=N)N)NC(=O)[C@H](CCCNC(=N)N)NC(=O)[C@H](CCCNC(=N)N)NC(=O)[C@H](CCCNC(=N)N)NC(=O)[C@H](CCCNC(=N)N)NC(=O)[C@@H](N)CCCNC(=N)N)C(=O)O [NP318, RRRRRRRRRRRRR (SEQ ID NO: 14)]	<0.0156 mM
N=C(N)NCCC[C@H](NC(=O)[C@H](CCCNC(=N)N)NC(=O)[C@H](CCCNC(=N)N)NC(=O)[C@H](CCCNC(=N)N)NC(=O)[C@H](CCCNC(=N)N)NC(=O)[C@H](CCCNC(=N)N)NC(=O)[C@H](CCCNC(=N)N)NC(=O)[C@H](CCCNC(=N)N)NC(=O)[C@H](CCCNC(=N)N)NC(=O)[C@H](CCCNC(=N)N)NC(=O)[C@H](CCCNC(=N)N)NC(=O)[C@H](CCCNC(=N)N)NC(=O)[C@@H](N)CCCNC(=N)N)C(=O)O [NP337, RRRRRRRRRRRRR (SEQ ID NO: 31)]	0.0025 mM
KKKKKKKKK [NP345, KKKKKKKKK (SEQ ID NO: 33)]	2.5 mM
RRRRVVRRRR [NP310, RRRRVVRRRR (SEQ ID NO: 10)]	0.5 mM
RRVRRVRR [NP309, RRVRRVRR (SEQ ID NO: 9)]	1 mM
RRVVRRVVRR [NP311, RRVVRRVVRR (SEQ ID NO: 11)]	2 mM

same assay, conditions: P. acnes; CLSI broth dilution

Compound	Minimum Inhibitory Concentration, antimicrobial activity, P. acnes
N=C(N)NCCC[C@H](NC(=O)[C@H](CCCNC(=N)N)NC(=O)[C@H](CCCNC(=N)N)NC(=O)[C@H](CCCNC(=N)N)NC(=O)[C@H](CCCNC(=N)N)NC(=O)[C@H](CCCNC(=N)N)NC(=O)[C@H](CCCNC(=N)N)NC(=O)[C@H](CCCNC(=N)N)NC(=O)[C@@H](N)CCCNC(=N)N)C(=O)O [NP316, RRRRRRRRR (SEQ ID NO: 12)]	0.0313 mM
KKKKKKKKKKKKKKK [NP348]	0.0625 mM

same assay, conditions: P. acnes; values marked * in mg/ml

Compound	Minimum Inhibitory Concentration, antimicrobial activity, P. acnes
(H)n, n = 32-161 [NP131]	>0.1* mg/ml
(H)n, n = >32 [NP132]	0.1* mg/ml
(K)n, n = 3-14 [NP112]	0.1* mg/ml
(K)n, n = 7-34 [NP106]	0.125* mg/ml
(R)n, n = 86-402 [NP122]	0.01* mg/ml
(R)n, n = >402 [NP123]	0.01* mg/ml

test system: Ps. aeruginosa; type: cell-based; conditions: not given
Method: as §1, §2

Compound	Minimum Inhibitory Concentration, antimicrobial activity, Ps. aeruginosa
N=C(N)NCCC[C@H](NC(=O)[C@H](CCCNC(=N)N)NC(=O)[C@H](CCCNC(=N)N)NC(=O)[C@H](CCCNC(=N)N)NC(=O)[C@H](CCCNC(=N)N)NC(=O)[C@H](CCCNC(=N)N)NC(=O)[C@H](CCCNC(=N)N)NC(=O)[C@H](CCCNC(=N)N)NC(=O)[C@H](CCCNC(=N)N)NC(=O)[C@H](CCCNC(=N)N)NC(=O)[C@@H](N)CCCNC(=N)N)C(=O)O [NP350, RRRRRRRRRRR (SEQ ID NO: 13)]	0.125 mM
